Laboratory results published in article PMC7878787 (Scientific Reports, 2021).
Like-named read-outs stand apart in the source and are kept apart here.

What was measured:
GRPR = biological target: T1, GRPR (Mus musculus, UniProt P21729); assay: In vivo specificity test (co-injection of non-labeled peptide); parameters: species or system Balb/c nu/nu mice; settings: 3 h pi, co-injection of 10 nmol non-labeled NOTA-PEG2-RM26, p < 0.002
T1 construct: Mice with GRPR-expressing PC-3 xenografts (implanted 21 d before the experiment) were used for all in vivo studies; from tissue; host or cells: PC-3 xenograft tumors in female Balb/c nu/nu mice
Method: For the in vivo specificity test, mice in the blocking group were co-injected with 10 nmol of non-labeled NOTA-PEG2-RM26 and sacrificed 3 h pi and samples were collected according to the protocol described above.

PC-3 cells = assay: Cellular processing (membrane-bound vs internalized activity); type: cell-based, human; settings: 2 nM, continuous incubation 24 h, 37 °C, n = 3
Method: At pre-determined time points (1 h, 2 h, 4 h, 24 h) cells were incubated with 0.2 M glycine buffer (with 0.15 M NaCl, 4 M Urea, pH 2) for 5 min on ice to collect the membrane-bound activity. Thereafter, cells were incubated at 37 °C for 30 min with 1 M NaOH and collected. Activity content in those samples was considered internalized activity.

[1] = Biodistribution in mice bearing PC-3 xenografts; type: in vivo, Balb/c nu/nu mice; settings: female, Balb/c nu/nu, mouse, iv, total radioactivity, 3 h pi, 40–50 pmol iv, female Balb/c nu/nu mice with PC-3 xenografts, average ± SD, n = 3–4
Method: (§1) Mice were sacrificed 3 h and 22 h pi by intraperitoneal injection of a lethal dose of Ketalar-Rompun solution (10 mg/mL Ketaminol (Intervet) and 1 mg/mL Rompun (Bayer); 20 μL solution/gram of body weight). Tumors were collected as well as samples of blood, lung, liver, spleen, pancreas, stomach, small intestine, kidneys, muscle, and bone. Gastrointestinal (GI) tract and carcass were also collected. Samples were weighed, and measured for activity content in the automated gamma counter. Corrections for background, spill-over and decay were performed for all measurements.
(§2) Biodistribution of [^68Ga]Ga-NOTA-PEG2-RM26 3 h pi was included for comparison. Mice were therefore injected with 40–50 pmol (250 kBq) ^68Ga-NOTA-PEG2-RM26, euthanized 3 h pi and samples were collected according to the protocol described above.

PC-3 xenografts = assay: Biodistribution in mice bearing PC-3 xenografts; type: in vivo, Balb/c nu/nu mice
Method: as §1, §2

[2] = Analysis of blood metabolites (radio-HPLC of plasma); type: in vivo; settings: 5 min pi, NMRI mice; for radiometal associated with intact peptide in blood plasma: 1.5 nmol (6.75–7.3 MBq)
Method: NMRI Mice were injected with 1.5 nmol (6.75–7.3 MBq) [^68Ga]Ga-NOTA-PEG2-RM26 and sacrificed 5 min pi by cervical dislocation. Immediately after blood was collected by heart puncture into a pre-chilled heparinized Eppendorf tube. Blood samples were centrifuged (10000RCF, 10 min at 4 °C), plasma was collected and mixed with equal amount of ice cold acetonitrile. The mixture was centrifuged (15,000 RCF, 10 min, 4 °C), the supernatant was collected and sterile filtered with a 0.2 µm PTFE syringe filter. The filtrate was analyzed on HPLC according to the method described above.

T1 sequence (P21729 whole entry): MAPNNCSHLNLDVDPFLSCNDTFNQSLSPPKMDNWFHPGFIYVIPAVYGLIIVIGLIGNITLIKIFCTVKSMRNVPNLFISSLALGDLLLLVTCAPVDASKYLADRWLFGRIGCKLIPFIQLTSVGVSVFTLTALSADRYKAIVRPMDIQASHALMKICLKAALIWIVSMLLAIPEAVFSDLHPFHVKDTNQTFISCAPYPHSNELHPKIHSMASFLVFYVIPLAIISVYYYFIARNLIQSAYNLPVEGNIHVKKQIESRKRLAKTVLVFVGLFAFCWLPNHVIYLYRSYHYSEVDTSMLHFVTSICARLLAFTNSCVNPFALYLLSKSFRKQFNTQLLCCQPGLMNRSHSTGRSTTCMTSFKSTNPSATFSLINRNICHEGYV

With `CC(C)C[C@H](NC(=O)C[C@H](O)[C@H](CC(C)C)NC(=O)[C@H](Cc1c[nH]cn1)NC(=O)CNC(=O)[C@@H](NC(=O)[C@H](C)NC(=O)[C@H](Cc1c[nH]c2ccccc12)NC(=O)[C@H](CCC(N)=O)NC(=O)[C@@H](Cc1ccccc1)NC(=O)COCCOCCNC(=O)CN1CCN(CC(=O)O)CCN(CC(=O)O)CC1)C(C)C)C(N)=O` [[^66Ga]Ga-NOTA-PEG2-RM26, metal not drawn] the “uptake in pancreas, blocked vs non-blocked” value (GRPR) was “significant decrease”, the “fraction of internalized activity, of cell-associated activity” value (PC-3 cells) was 17% and the tissue uptake at 3 h ([1]; bone, read-out: Uptake, Bone) was 0.5 ± 0.3 %ID/g. For the same compound, the tissue uptake at 3 h ([1]; kidney, read-out: Uptake, Kidney) was 1.7 ± 0.4 %ID/g, the tissue uptake at 3 h ([1]; liver, read-out: Uptake, Liver) was 0.28 ± 0.06 %ID/g and the tissue uptake at 3 h ([1]; lung, read-out: Uptake, Lung) was 0.5 ± 0.4 %ID/g. For the same compound, the tissue uptake at 3 h ([1]; pancreas, read-out: Uptake, Pancreas) was 3.4 ± 0.7 %ID/g, the tissue uptake at 3 h ([1]; stomach, read-out: Uptake, Stomach) was 1.9 ± 0.4 %ID/g and the tissue uptake at 3 h ([1]; tumor (PC-3 xenograft), read-out: Uptake, Tumor) was 14 ± 1 %ID/g. For the same compound, the tissue uptake at 3 h ([1]; whole blood, read-out: Uptake, Blood) was 0.15 ± 0.06 %ID/g.

In the case of `CC(C)C[C@H](NC(=O)C[C@H](O)[C@H](CC(C)C)NC(=O)[C@H](Cc1c[nH]cn1)NC(=O)CNC(=O)[C@@H](NC(=O)[C@H](C)NC(=O)[C@H](Cc1c[nH]c2ccccc12)NC(=O)[C@H](CCC(N)=O)NC(=O)[C@@H](Cc1ccccc1)NC(=O)COCCOCCNC(=O)CN1CCN(CC(=O)O)CCN(CC(=O)O)CC1)C(C)C)C(N)=O` [[^66Ga]Ga-NOTA-PEG2-RM26] [metal not drawn], the “change of uptake in bone during the observation period” value (PC-3 xenografts; 3 to 22 h pi) is reported as “increased”, the “activity retained in tumors from 3 to 22 h pi” value (PC-3 xenografts; PC-3 xenografts) is reported as “approximately 50%” and the “change of uptake in GRPR-expressing pancreas from 3 to 22 h pi” value (PC-3 xenografts; p < 0.004) is reported as “decreased significantly”.

For `CC(C)C[C@H](NC(=O)C[C@H](O)[C@H](CC(C)C)NC(=O)[C@H](Cc1c[nH]cn1)NC(=O)CNC(=O)[C@@H](NC(=O)[C@H](C)NC(=O)[C@H](Cc1c[nH]c2ccccc12)NC(=O)[C@H](CCC(N)=O)NC(=O)[C@@H](Cc1ccccc1)NC(=O)COCCOCCNC(=O)CN1CCN(CC(=O)O)CCN(CC(=O)O)CC1)C(C)C)C(N)=O` [[^68Ga]Ga-NOTA-PEG2-RM26, metal not drawn], the “free gallium, share of activity in blood plasma” value [2] was 6%, the “radiometal associated with intact peptide in blood plasma” value [2] was “up to 57%” and the “radiometal associated with intact peptide in blood plasma” value ([2]; listed as gallium labeled NOTA-PEG2-RM26) was “up to 60%”.
